From PMC5834492, “Antimycobacterial drug discovery using Mycobacteria-infected amoebae identifies anti-infectives and new molecular targets” (Scientific Reports, 2018)
Where two headings read alike, the source gives them in different places.

How the values were obtained:
M. marinum GFP = format: cell-based, Mycobacterium marinum; settings: 10 µM; antibiotic assay
[1] = system: M. marinum in A. castellanii; format: cell-based, Mycobacterium marinum; settings: 10 µM
Mtb H37Rv in THP-1 = system: Mtb H37Rv in THP-1; design: method as in Sorrentino et al, 2015; settings: ref Sorrentino et al, 2015, cited from earlier work; for Extracellular MIC90/ Inracellular MIC90: ratio
M. marinum luxCDABE = format: cell-based, Mycobacterium marinum; settings: 10 µM
[2] = system: M. marinum in BV2 microglial cells; format: cell-based, Mycobacterium marinum; settings: for BV2 / M. marinum normalised growth, control=1.00, mean / hit in BV2/M. marinum assay True/False: 10 µM
D. discoideum GFP-ABD = settings: 10 µM
Mtb H37Rv = system: Mtb H37Rv; design: method as in Sorrentino et al, 2015; settings: ref Sorrentino et al, 2015; cited from earlier work
[3] = THP1 / Mtb H37Rv infection assay

Compound	M. marinum GFP normalised growth, control=1.00, mean (M. marinum GFP)	A. castellanii / M. marinum normalised growth, control=1.00, mean [1]	Hits A. castellanii/M. marinum assay True/False [1]	Intracelullar MIC90 in THP-1 (Mtb H37Rv in THP-1; Mtb H37Rv-infected THP1 cells) [µM]	Intracelullar MIC90 in THP-1 (Mtb H37Rv in THP-1; [3]) [µM]	Extracellular MIC90/ Inracellular MIC90 (Mtb H37Rv in THP-1)	M. marinum luxCDABE normalised growth, control = 1.00, mean (M. marinum luxCDABE)	M. marinum luxCDABE normalised growth, control=1.00, mean (M. marinum luxCDABE)	IC50 [2] [µM]	BV2 / M. marinum normalised growth, control=1.00, mean [2]	hit in BV2/M. marinum assay True/False [2]	D. discoideum GFP-ABD normalised growth, control = 1.00, mean (D. discoideum GFP-ABD)	D. discoideum GFP-ABD normalised growth, control=1.00, mean (D. discoideum GFP-ABD)	Extracellular MIC90 (Mtb H37Rv) [µM]	A. castellanii/M. marinum normalised growth, control = 1.00, mean [1]
O=C(NCc1ccc2c(c1)OCO2)c1c(C(F)(F)F)nc2ccccn12 [GSK1829671A]	0.06	0.66	FALSE	16.65	16.65	0.2	0,00	0.00	7.47	0.49	TRUE	1,21	1.21	3.3	
O=C(NCc1ccc(Oc2ccccc2)cc1)c1c(C(F)(F)F)nc2ccccn12 [GSK1829676A]	0.0321	0.56	FALSE	0.21	0.21	0.95	0,00	0.00		0.35	TRUE		0.75	0.2	
Cc1ccc2nc(C(F)(F)F)c(C(=O)NCc3ccc(C)o3)n2c1 [GSK1829728A]	0.10	0.78	FALSE	1.85	1.85	1.84	0,00	0.00	4.03	0.43	TRUE	1,01	1.01	3.4	
Cc1ccc2nc(C(F)(F)F)c(C(=O)NCc3cccs3)n2c1 [GSK1829729A]	0.0432	0.52	FALSE	0.61	0.61	1.47	0,00	0.00	0.08	0.48	TRUE		0.86	0.9	
Cc1ccc2nc(C(F)(F)F)c(C(=O)NCc3ccc4c(c3)OCO4)n2c1 [GSK1829732A]	0.06	0.56	FALSE	1.85	1.85	0.59	0,00	0.00	3.52	0.34	TRUE	1,00	1.00	1.1	
Cc1ccc2nc(C(F)(F)F)c(C(=O)NCc3cccc(OC(C)C)c3)n2c1 [GSK1829733A]	0.09	0.68			1.85	1.13		0.00	3.35	0.69			1.05	2.1	
Cc1ccc2nc(C(F)(F)F)c(C(=O)NCc3cc(Cl)cc(Cl)c3)n2c1 [GSK1829736A]	0.04	0.60	FALSE	0.61	0.61	1.47	0,00	0.00	2.21	0.41	TRUE		0.93	0.9	
Cc1ccc2nc(C)c(C(=O)NCC(C)C)n2c1 [GSK1829816A]	0.20	1.01			16.65	0.46		0.08	4.09	0.61			1.03	7.7	
Cc1ccc2nc(C)c(C(=O)NCc3ccco3)n2c1 [GSK1829819A]	0.08	0.66	FALSE	0.61	0.61	2.13	0,00	0.00	3.9	0.37	TRUE	1,08	1.08	1.3	
CCN(Cc1ccc2c(c1)OCO2)C(=O)CSc1nc(NC)c2ccccc2n1 [GSK1859936A]	0.54	1.03			16.65	0.17		0.07	4.14	0.63			1.00	2.8	
CNc1nc(SCC(=O)N(C)Cc2ccc(Cl)s2)nc2ccccc12 [GSK1925843A]	0.70	1.12	FALSE	16.65	16.65	0.34	0,00	0.00	3.83	0.43	TRUE	1,10	1.10	5.6	1,12
Clc1ccc(CCNc2cc(-c3ccccc3)nc3ncnn23)cc1 [GSK1955236A]	0.66	1.32			1.85	0.81		0.00	5.69	0.80			0.93	1.5	
